Test results taken from publication PMC8713167, “New Insights into the Structure–Activity Relationship and Neuroprotective Profile of Benzodiazepinone Derivatives of Neurounina-1 as Modulators of the Na^+/Ca^2+ Exchanger Isoforms” (Journal of Medicinal Chemistry, 2021).

Columns and labels:
NCX3 = target: T1, NCX3 (Rattus norvegicus, UniProt P70549); experiment: High-throughput screening of NCX3 reverse mode, Fluo-4-loaded BHK-NCX3 cells, Na+-free pulse; format: cell-based; settings: CTL (100), concentration not given (10 nM and 10 μM screened)
T1 construct: expressed in transfected cells; host or cells: BHK (baby hamster kidney) cells, stably transfected

NCX1 = target: T2, NCX1 (Canis lupus familiaris, UniProt P23685); experiment: High-throughput screening of NCX1 reverse mode, Fluo-4-loaded BHK-NCX1 cells, Na+-free pulse; format: cell-based, dog; settings: for Fluo-experiments on BHK-NCX1: NCX1 reverse mode, Na+-free, CTL (100), concentration not given (10 nM and 10 μM screened); for Activity on NCX (SAR discussion, in words): NCX1/NCX3 reverse-mode screening
T2 construct: expressed in transfected cells; host or cells: BHK (baby hamster kidney) cells, stably transfected

T1 sequence (P70549 31-927): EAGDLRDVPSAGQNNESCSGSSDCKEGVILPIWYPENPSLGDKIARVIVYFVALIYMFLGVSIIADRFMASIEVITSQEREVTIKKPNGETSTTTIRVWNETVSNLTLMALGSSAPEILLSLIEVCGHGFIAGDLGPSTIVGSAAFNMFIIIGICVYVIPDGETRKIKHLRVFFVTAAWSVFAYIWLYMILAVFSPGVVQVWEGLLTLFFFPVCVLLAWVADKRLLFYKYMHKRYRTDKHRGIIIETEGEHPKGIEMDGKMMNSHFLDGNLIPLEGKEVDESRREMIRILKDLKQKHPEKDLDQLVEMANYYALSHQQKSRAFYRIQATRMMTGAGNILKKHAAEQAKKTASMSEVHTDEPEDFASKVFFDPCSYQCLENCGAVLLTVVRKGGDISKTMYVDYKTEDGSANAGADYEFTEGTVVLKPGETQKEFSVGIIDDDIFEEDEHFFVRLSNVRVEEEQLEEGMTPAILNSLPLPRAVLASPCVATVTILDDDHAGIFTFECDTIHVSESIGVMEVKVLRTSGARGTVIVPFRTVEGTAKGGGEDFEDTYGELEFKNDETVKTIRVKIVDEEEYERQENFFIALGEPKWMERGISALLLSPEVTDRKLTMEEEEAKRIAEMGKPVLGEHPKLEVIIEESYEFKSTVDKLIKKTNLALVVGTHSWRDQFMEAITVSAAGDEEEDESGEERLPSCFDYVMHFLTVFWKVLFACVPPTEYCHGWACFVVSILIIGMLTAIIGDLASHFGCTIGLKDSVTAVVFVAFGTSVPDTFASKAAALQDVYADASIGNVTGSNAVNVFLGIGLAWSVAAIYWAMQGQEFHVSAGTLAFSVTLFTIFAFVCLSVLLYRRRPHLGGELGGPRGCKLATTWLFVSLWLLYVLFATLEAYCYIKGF

| Structure (SMILES) | Fluo-experiments on BHK-NCX3 (NCX3) | Fluo-experiments on BHK-NCX1 (NCX1) | melting point [°C] | Activity on NCX (SAR discussion, in words) (NCX1) |
| --- | --- | --- | --- | --- |
| Cc1nccn1CCN1C(=O)CN=C(c2ccccc2)c2cc([N+](=O)[O-])ccc21 [Compound 9, 1-[2-(2-Methyl-1H-imidazole-1-yl)ethyl]-7-nitro-5-phenyl-1H-benzo[e][1,4]diazepin-2(3H)-one] | 100 | 100 |  |  |
| Cc1nccn1C(=O)CN1C(=O)CN=C(c2ccccc2)c2cc([N+](=O)[O-])ccc21 [Compound 17, 1-[2-(2-Methyl-1H-imidazole-1-yl)-2-oxoethyl]-7-nitro-5-phenyl-1H-benzo[e][1,4]diazepin-2(3H)-one] | 100 | 100 |  |  |
| O=C1CN=C(c2ccccc2)c2cc([N+](=O)[O-])ccc2N1CCN1CCN(c2ccccc2)CC1 [Compound 10, 7-Nitro-5-phenyl-1-[2-(4-phenylpiperazin-1-yl)ethyl]-1H-benzo[e][1,4]diazepin-2(3H)-one] | 100 | 100 |  |  |
| O=C1CN=C(c2ccccc2)c2cc([N+](=O)[O-])ccc2N1CC(=O)n1ccnc1 [Compound 16, 1-[2-(1H-Imidazole-1-yl)-2-oxoethyl]-7-nitro-5-phenyl-1H-benzo[e][1,4]diazepin-2(3H)-one] | 100 | 100 | 120 to 121 |  |
| CC1CCCCN1CCN1C(=O)CN=C(c2ccccc2)c2cc([N+](=O)[O-])ccc21 (stereo not drawn) [Compound 6, 1-[2-(2-Methylpiperidin-1-yl)ethyl]-7-nitro-5-phenyl-1H-benzo[e][1,4]diazepin-2(3H)-one] | 100 | 100 |  | inactive |
| O=C(CN1C(=O)CN=C(c2ccccc2)c2cc([N+](=O)[O-])ccc21)N1CCN(c2cccc3ccccc23)CC1 [Compound 19, 1-{2-[4-(Naphthalen-1-yl)piperazin-1-yl]-2-oxoethyl}-7-nitro-5-phenyl-1H-benzo[e][1,4]-diazepin-2(3H)-one] | 100 | 100 |  |  |
| O=C1CN=C(c2ccccc2)c2cc([N+](=O)[O-])ccc2N1CCN1CCCCC1 [Compound 5, 7-Nitro-5-phenyl-1-[2-(piperidin-1-yl)ethyl]-1H-benzo[e][1,4]diazepin-2(3H)-one] | 100 | 100 |  | inactive |
| CC1CCCN(C(=O)CN2C(=O)CN=C(c3ccccc3)c3cc([N+](=O)[O-])ccc32)C1 (stereo not drawn) [Compound 15, 1-3-[(3-Methylpiperidin-1-yl)-2-oxoethyl]-7-nitro-5-phenyl-1H-benzo[e][1,4]-diazepin-2(3H)-one] | 100 | 100 |  |  |
| O=C1CN=C(c2ccccc2)c2cc([N+](=O)[O-])ccc2N1CCn1ccnc1 [Compound 8, 1-[2-(1H-Imidazole-1-yl)ethyl]-7-nitro-5-phenyl-1H-benzo[e][1,4]diazepin-2(3H)-one] | 100 | 100 |  | complete loss of activity |
| O=C(CN1C(=O)CN=C(c2ccccc2)c2cc([N+](=O)[O-])ccc21)N1CCCCC1 [Compound 13, 7-Nitro-1-[2-Oxo-2-(piperidin-1-yl)ethyl]-5-phenyl-1H-benzo[e][1,4]diazepin-2(3H)-one] | 100 | 100 |  |  |
| O=C(CN1C(=O)CN=C(c2ccccc2)c2cc([N+](=O)[O-])ccc21)N1CCN(c2ccccc2)CC1 [Compound 18, 7-Nitro-1-[2-Oxo-2-(4-phenylpiperazin-1-yl)ethyl]-5-phenyl-1H-benzo[e][1,4]diazepin-2(3H)-one] | 100 | 100 |  |  |
| O=C1CN=C(c2ccccc2)c2cc([N+](=O)[O-])ccc2N1CN1CCCCC1 [Compound 3, 7-Nitro-5-phenyl-1-(piperidin-1-ylmethyl)-1H-benzo[e][1,4]diazepin-2(3H)-one] | 100 | 100 |  | complete loss of activity |
| O=C1CN=C(c2ccccc2)c2cc(Cl)ccc2N1CN1CCCC1 [Compound 2, 7-Chloro-5-phenyl-1-(pyrrolidin-1-ylmethyl)-1H-benzo[e][1,4]diazepin-2(3H)-one] | 100 | 100 |  | inactivity |
| O=C(CN1C(=O)CN=C(c2ccccc2)c2cc([N+](=O)[O-])ccc21)N1CCCC1 [Compound 12, 7-Nitro-1-[2-Oxo-2-(pyrrolidin-1-yl)ethyl]-5-phenyl-1H-benzo[e][1,4]diazepin-2(3H)-one] | 100 | 100 |  |  |
| CC1CCCN(CCN2C(=O)CN=C(c3ccccc3)c3cc([N+](=O)[O-])ccc32)C1 (stereo not drawn) [Compound 7, 1-[2-(3-Methylpiperidin-1-yl)ethyl]-7-nitro-5-phenyl-1H-benzo[e][1,4]diazepin-2(3H)-one] | 100 | 100 |  | inactive |
| O=C1CN=C(c2ccccc2)c2cc([N+](=O)[O-])ccc2N1CCN1CCN(c2cccc3ccccc23)CC1 [Compound 11, 1-{2-[4-(Naphthalen-1-yl)piperazin-1-yl]ethyl}-7-nitro-5-phenyl-1H-benzo[e][1,4]diazepin-2(3H)-one] | 100 | 100 |  |  |
